Assay results reported in patent US6566337B1, “Compounds with growth hormone releasing properties” (Novo Nordisk A/S, priority 1998, dated 2003).
Square brackets hold non-standard residues; d marks the D form. Peptide text beside a SMILES is read from it. d2Nal = N[C@H](Cc1ccc2ccccc2c1)C(=O)O

Experiments:
[1] = Pharmacokinetics in fasted Beagle dogs; format: in vivo; conditions: dog, plasma; for half-life: in 5% glucose solution, non-compartmental, read-out: Plasma half-life T½ (converted); for bioavailability: intravenous and oral administration in 5% glucose solution, read-out: Oral bioavailability Fpo
Protocol: The pharmakokinetic data were obtained by following procedure:
The pharmacokinetics of the test compounds were investigated in fasted Beagle dogs.
Intravenous and oral administration of the test compound, in 5% glucose solution, was separated by a one weeks washout.
Blood samples were collected immediately before drug administration (time zero) and than 0.08, 0.25, 0.50, 0.75, 1.0, 1.5, 2.0, 3.0, 4.0, 5.0, and 6.0 hours after administration.
The plasma samples were stored frozen (<−18° C.) pending analysis.
An HPLC method with solid phase extraction and UV detection was used for the quantification of the compound in plasma.
The pharmacokinetic parameters for compounds were calculated by non-compartmental methods using the PC based pharmacokinetic software WinNonlin, version 1.1 (Scientific Consulting Inc., Apex, N.C., USA).

carboxypeptidase Y and B = test: Metabolic stability in carboxypeptidase mix (ESMS, SIM signal); conditions: carboxypeptidase Y and B in 50 mM ammoniumacetate pH 4.5, 37° C., 24 h, decrease in SIM signal
Protocol: (§1) Compounds is dissolved at a concentration of 1 mg/ml in water. 25 ml of this solution is added to 175 ml of the respective enzyme-solution (resulting in an enzyme:substrate ratio (w/w) of approximately 1:5). The solution is left at 37° C. overnight. 10 ml of the various degradation solutions is analyzed against a corresponding zero-sample using flow injection electrospray mass spectrometry (ESMS) with selected ion monitoring of the molecular ion. If the signal has decreased more than 20% compared to the zero-sample, the remainder of the solution is analyzed by HPLC and mass spectrometry in order to identify the extent and site(s) of degradation precisely.
Carboxypeptidase mix: carboxypeptidase Y and B in 50 mM ammoniumacetate pH 4.5 (all concentrations 0.025 mg/ml).
(§2) Mass spectrometric analysis was performed using two different mass spectrometers. A Sciex API III triple quadrupole LC-MS instrument (Sciex instruments, Thornhill, Ontario) equipped with an electrospray ion-source and a Bio-Ion 20 time-of-flight Plasma Desorption instrument (Bio-Ion Nordic AB, Uppsala, Sweden).
(§3) Quantification of the compounds (before and after degradation) was done on the API III instrument using single ion monitoring of the molecular ion in question with flow injection of the analyte. […]

[2] = system: trypsin, chymotrypsin and elastase; test: Metabolic stability in pancreatic enzyme mix (ESMS, SIM signal); conditions: chymotrypsin and elastase in 100 mM ammoniumbicarbonate pH 8.0, 37° C., 24 h, decrease in SIM signal
Protocol: as §1
Pancreatic enzyme mix: trypsin, chymotrypsin and elastase in 100 mM ammoniumbicarbonate pH 8.0 (all concentrations 0.025 mg/ml).
as §2, §3

half-life [1] | bioavailability [1] | Structure (SMILES) | Carboxy-peptidase mix (stability) (carboxypeptidase Y and B) | Pan. enzyme mix (stability) [2]
120 min | 34% | CN(CCc1ccccn1)C(=O)[C@@H](Cc1ccccc1)N(C)C(=O)[C@@H](Cc1ccc2ccccc2c1)N(C)C(=O)/C=C/CC(C)(C)N [Example 1, (2E)-5-Amino-5-methylhex-2-enoic acid N-methyl-N-[(1R)-1-(N-methyl-N-{(1R)-1-[N-methyl-N-(2-(2-pyridinyl)ethyl)carbamoyl]-2-phenylethyl}carbamoyl)-2-(2-naphthyl)ethyl]amide] |  | 
233 min | 26% | CN(C(=O)/C=C/CC(C)(C)N)[C@H](Cc1ccc2ccccc2c1)C(=O)N(C)[C@H](Cc1ccccc1)C(=O)NCCc1ccncc1 [Example 408 from WO 9723508] |  | 
 |  | C[C@H](NC(=O)[C@@H](Cc1ccc2ccccc2c1)NC(=O)[C@@H](C)N)C(=O)N[C@@H](Cc1c[nH]c2ccccc12)C(=O)N[C@H](Cc1ccccc1)C(=O)N[C@@H](CCCCN)C(N)=O [GHRP-2] (H-[dA][d2Nal]AW[dF]K-NH2) | − (Unstable (more than 20% decrease in SIM signal after 24 h in degradation solution)) | − (Unstable (more than 20% decrease in SIM signal after 24 h in degradation solution))
 |  | C[C@H](NC(=O)[C@@H](Cc1c[nH]c2ccccc12)NC(=O)[C@@H](N)Cc1c[nH]cn1)C(=O)N[C@@H](Cc1c[nH]c2ccccc12)C(=O)N[C@H](Cc1ccccc1)C(=O)N[C@@H](CCCCN)C(N)=O [GHRP-6] (H-H[dW]AW[dF]K-NH2) | − (Unstable (more than 20% decrease in SIM signal after 24 h in degradation solution)) | − (Unstable (more than 20% decrease in SIM signal after 24 h in degradation solution))
